Experimental data from patent US20240067631A1, “PYRAZOLE DERIVATIVES USEFUL AS NAMPT MODULATORS” (Cytokinetics, Inc., priority 2020, published 2024).

Molecular target: human NAMPT (Homo sapiens (Human), UniProt P43490)
Assay: Human recombinant enzyme assay (NMN fluorescence biochemical assay)
Conditions: 6 nM human NAMPT, 60 min; for AC1.4 Human: concentration of compound that generates 40% higher activity over basal; for EC50: concentration that gives half-maximal activation
Summary of the method: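 Recombinant human NAMPT (6 nM) with 2.5 mM ATP, […] PRPP and […] nicotinamide in HEPES pH 7.2 with DTT, CHAPS, NaCl, MgCl2; 60 min at ambient temperature. NMN derivatised with acetophenone/KOH/formic acid, fluorescence read at 355/460 nm. AC1.4 (40% above basal) and EC50 reported.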

Chain of human NAMPT (P43490 whole entry): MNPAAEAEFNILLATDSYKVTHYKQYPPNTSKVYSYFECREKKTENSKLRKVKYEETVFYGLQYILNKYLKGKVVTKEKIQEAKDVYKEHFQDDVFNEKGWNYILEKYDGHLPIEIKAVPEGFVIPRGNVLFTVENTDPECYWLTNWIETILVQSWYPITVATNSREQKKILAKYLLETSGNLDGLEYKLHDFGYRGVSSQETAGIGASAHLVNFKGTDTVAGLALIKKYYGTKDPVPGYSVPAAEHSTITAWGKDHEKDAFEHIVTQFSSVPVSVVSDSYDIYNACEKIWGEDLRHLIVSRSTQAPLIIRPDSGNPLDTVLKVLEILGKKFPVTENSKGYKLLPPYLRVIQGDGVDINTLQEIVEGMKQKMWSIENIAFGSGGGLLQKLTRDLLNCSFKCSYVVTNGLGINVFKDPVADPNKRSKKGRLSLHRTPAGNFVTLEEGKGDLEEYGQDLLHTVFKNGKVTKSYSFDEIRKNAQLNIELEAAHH

| SMILES | AC1.4 Human [µM] | EC50 [µM] |
| --- | --- | --- |
| Cc1nc(C(=O)N[C@@H](C)c2ccccc2)nc(NCCc2cn[nH]c2)c1C [Compound 59, (S)-4-((2-(1H-pyrazol-4-yl)ethyl)amino)-5,6-dimethyl-N-(1-phenylethyl)pyrimidine-2-carboxamide] | 0.4045 | 3.08 |
| Cc1cccc([C@H]2CCCN2C(=O)c2nc(C)c(C)c(NCCc3cn[nH]c3)n2)n1 [Compound 131, (R)-(4-((2-(1H-pyrazol-4-yl)ethyl)amino)-5,6-dimethylpyrimidin-2-yl)(2-(6-methylpyridin-2-yl)pyrrolidin-1-yl)methanone] | 3.487 | 10.8 |
| Cc1nc(C(=O)N2CCC[C@@H]2c2cccc(F)c2)nc(NCCc2cn[nH]c2)c1Cl [Compound 148, (R)-(4-((2-(1H-pyrazol-4-yl)ethyl)amino)-5-chloro-6-methylpyrimidin-2-yl)(2-(3-fluorophenyl)pyrrolidin-1-yl)methanone] | >31 |  |
| COC[C@H](NC(=O)c1nc(C)c(C)c(NCCc2cn[nH]c2)n1)c1cccc(F)c1 [Compound 49, (R)-4-((2-(1H-pyrazol-4-yl)ethyl)amino)-N-(1-(3-fluorophenyl)-2-methoxyethyl)-5,6-dimethylpyrimidine-2-carboxamide] | 0.3055 | 2.1 |
| Cc1nc(C(=O)NC(C)(C)Cc2cccc(F)c2)nc(NCCc2cn[nH]c2)c1C [Compound 41, 4-((2-(1H-pyrazol-4-yl)ethyl)amino)-N-(1-(3-fluorophenyl)-2-methylpropan-2-yl)-5,6-dimethylpyrimidine-2-carboxamide] | 0.2615 | 2.87 |
| Cc1nc(C(=O)N2CCC[C@@H]2c2ccccc2)nc(NCCc2cn[nH]c2)c1C [Compound 38, (R)-(4-((2-(1H-pyrazol-4-yl)ethyl)amino)-5,6-dimethylpyrimidin-2-yl)(2-phenylpyrrolidin-1-yl)methanone] | 0.1635 | 3.83 |
| Cc1nc(C(=O)N2CCOC[C@H]2Cc2ccccc2)nc(NCCc2cn[nH]c2)c1C [Compound 64, (R)-(4-((2-(1H-pyrazol-4-yl)ethyl)amino)-5,6-dimethylpyrimidin-2-yl)(3-benzylmorpholino)methanone] | 0.458 | 2.16 |
| Cc1nc(C(=O)N2CCC2c2ccccc2)nc(NCCc2cn[nH]c2)c1C (stereo not drawn) [Compound 132, (4-((2-(1H-pyrazol-4-yl)ethyl)amino)-5,6-dimethylpyrimidin-2-yl)(2-phenylazetidin-1-yl)methanone] | 3.5055 | 13.1 |
| COc1cccc(C(C)NC(=O)c2nc(C)c(C)c(NCCc3cn[nH]c3)n2)n1 (stereo not drawn) [Compound 68, 4-((2-(1H-pyrazol-4-yl)ethyl)amino)-N-(1-(6-methoxypyridin-2-yl)ethyl)-5,6-dimethylpyrimidine-2-carboxamide] | 0.563 | 1.64 |
| Cc1nc(C(=O)N[C@@H](C)c2cccs2)nc(NCCc2cn[nH]c2)c1C [Compound 8, (S)-4-((2-(1H-pyrazol-4-yl)ethyl)amino)-5,6-dimethyl-N-(1-(thiophen-2-yl)ethyl)pyrimidine-2-carboxamide] | 0.0325 | 0.182 |
| Cc1nc(C(=O)N[C@H](C)c2cc3ccccc3o2)nc(NCCc2cn[nH]c2)c1C [Compound 112, (R)-4-((2-(1H-pyrazol-4-yl)ethyl)amino)-N-(1-(benzofuran-2-yl)ethyl)-5,6-dimethylpyrimidine-2-carboxamide] | 2.084 | 2.97 |
| Cc1nc(C(=O)N[C@@H](C)c2ccncc2)nc(NCCc2cn[nH]c2)c1C [Compound 87, (S)-4-((2-(1H-pyrazol-4-yl)ethyl)amino)-5,6-dimethyl-N-(1-(pyridin-4-yl)ethyl)pyrimidine-2-carboxamide] | 1.1375 | 13.3 |
| Cc1nc(C(=O)NC(C)c2ncco2)nc(NCCc2cn[nH]c2)c1C (stereo not drawn) [Compound 108, 4-((2-(1H-pyrazol-4-yl)ethyl)amino)-5,6-dimethyl-N-(1-(oxazol-2-yl)ethyl)pyrimidine-2-carboxamide] | 1.7855 | 18.1 |
| Cc1nc(C(N)=O)nc(N(CCc2ccccc2)CCc2cn[nH]c2)c1C [Compound 1, 4-((2-(1H-pyrazol-4-yl)ethyl)(phenethyl)amino)-5,6-dimethylpyrimidine-2-carboxamide] | 0.003 | 0.131 |
| Cc1nc(C(=O)N2CC(O)(c3cccc(F)c3)C2)nc(NCCc2cn[nH]c2)c1C [Compound 3, (4-((2-(1H-pyrazol-4-yl)ethyl)amino)-5,6-dimethylpyrimidin-2-yl)(3-(3-fluorophenyl)-3-hydroxyazetidin-1-yl)methanone] | 0.0165 | 0.653 |
| Cc1nc(C(=O)NC(C)(C)c2cccnc2)nc(NCCc2cn[nH]c2)c1C [Compound 121, 4-((2-(1H-pyrazol-4-yl)ethyl)amino)-5,6-dimethyl-N-(2-(pyridin-3-yl)propan-2-yl)pyrimidine-2-carboxamide] | 2.5075 | 22.1 |

| SMILES | AC1.4 Human [µM] | EC50 [µM] |
| --- | --- | --- |
| Cc1nc(C(=O)NCCc2ccccc2)nc(NCCc2cn[nH]c2)c1C [Compound 50, 4-((2-(1H-pyrazol-4-yl)ethyl)amino)-5,6-dimethyl-N-phenethylpyrimidine-2-carboxamide] | 0.311 | 2.08 |
| Cc1nc(C(=O)NC(c2ccccc2)C(F)(F)F)nc(NCCc2cn[nH]c2)c1C (stereo not drawn) [Compound 33, 4-((2-(1H-pyrazol-4-yl)ethyl)amino)-5,6-dimethyl-N-(2,2,2-trifluoro-1-phenylethyl)pyrimidine-2-carboxamide] | 0.2615 | 1.38 |
| Cc1nc(C(=O)N[C@@H](C)c2ccccc2Cl)nc(NCCc2cn[nH]c2)c1C [Compound 99, (S)-4-((2-(1H-pyrazol-4-yl)ethyl)amino)-N-(1-(2-chlorophenyl)ethyl)-5,6-dimethylpyrimidine-2-carboxamide] | 1.5915 | 20 |
| Cc1nc(C(=O)NC2(Cc3ccc(F)cc3Cl)CCOCC2)nc(NCCc2cn[nH]c2)c1C [Compound 85, 4-((2-(1H-pyrazol-4-yl)ethyl)amino)-N-(4-(2-chloro-4-fluorobenzyl)tetrahydro-2H-pyran-4-yl)-5,6-dimethylpyrimidine-2-carboxamide] | 1.072 | 8.35 |
| Cc1nc(C(=O)N[C@H](C)c2ccco2)nc(NCCc2cn[nH]c2)c1C [Compound 75, (R)-4-((2-(1H-pyrazol-4-yl)ethyl)amino)-N-(1-(furan-2-yl)ethyl)-5,6-dimethylpyrimidine-2-carboxamide] | 0.7725 | 2.62 |
| Cc1nc(C(=O)N2C[C@H](c3ccccc3)[C@@H](O)C2)nc(NCCc2cn[nH]c2)c1C [Compound 42, (4-((2-(1H-pyraazol-4-yl)ethyl)amino)-5,6-dimethylpyrimidin-2-yl)((3R,4S)-3-hydroxy-4-phenylpyrrolidin-1-yl)methanone] | 0.265 | 2.92 |
| Cc1nc(C(=O)NCC(O)(c2ccccc2)C(F)(F)F)nc(NCCc2cn[nH]c2)c1C (stereo not drawn) [Compound 122, 4-((2-(1H-pyrazol-4-yl)ethyl)amino)-5,6-dimethyl-N-(3,3,3-trifluoro-2-hydroxy-2-phenylpropyl)pyrimidine-2-carboxamide] | 2.574 | 16.7 |
| Cc1nc(C(=O)N2CCOC[C@@H]2Cc2ccccc2)nc(NCCc2cn[nH]c2)c1C [Compound 72, (S)-(4-((2-(1H-pyrazol-4-yl)ethyl)amino)-5,6-dimethylpyrimidin-2-yl)(3-benzylmorpholino)methanone] | 0.625 | 3.53 |
| Cc1nc(C(=O)N[C@H](C)c2ccccn2)nc(NCCc2cn[nH]c2)c1C [Compound 47, (R)-4-((2-(1H-pyrazol-4-yl)ethyl)amino)-5,6-dimethyl-N-(1-(pyridin-2-yl)ethyl)pyrimidine-2-carboxamide] | 0.2915 | 2 |
| Cc1nc(C(=O)N2C[C@@H](C)OC[C@H]2c2ccccc2)nc(NCCc2cn[nH]c2)c1C [Compound 62, (4-((2-(1H-pyrazol-4-yl)ethyl)amino)-5,6-dimethylpyrimidin-2-yl)((2R,5R)-2-methyl-5-phenylmorpholino)methanone] | 0.4295 | 3.21 |
| Cc1nc(C(=O)NCc2ncccc2F)nc(NCCc2cn[nH]c2)c1C [Compound 120, 4-((2-(1H-pyrazol-4-yl)ethyl)amino)-N-((3-fluoropyridin-2-yl)methyl)-5,6-dimethylpyrimidine-2-carboxamide] | 2.443 | 15.2 |
| Cc1nc(C(=O)NCc2ccccn2)nc(NCCc2cn[nH]c2)c1C [Compound 93, 4-((2-(1H-pyrazol-4-yl)ethyl)amino)-5,6-dimethyl-N-(pyridin-2-ylmethyl)pyrimidine-2-carboxamide] | 1.244 | 14.9 |
| C[C@@H](NC(=O)c1nc2c(c(NCCc3cn[nH]c3)n1)CCC2)c1cccc(F)n1 [Compound 146, (R)-4-((2-(1H-pyrazol-4-yl)ethyl)amino)-N-(1-(6-fluoropyridin-2-yl)ethyl)-6,7-dihydro-5H-cyclopenta[d] pyrimidine-2-carboxamide] | 2.7 |  |
| Cc1nc(C(=O)N2CCOC[C@@H]2c2ccccc2)nc(NCCc2cn[nH]c2)c1C [Compound 63, (S)-(4-((2-(1H-pyrazol-4-yl)ethyl)amino)-5,6-dimethylpyrimidin-2-yl)(3-phenylmorpholino)methanone] | 0.4315 | 2.29 |
| Cc1nc(C(=O)NCc2ccccc2)nc(NCCc2cn[nH]c2)c1C [Compound 31, 4-((2-(1H-pyrazol-4-yl)ethyl)amino)-N-benzyl-5,6-dimethylpyrimidine-2-carboxamide] | 0.192 | 1.61 |
